Laboratory results taken from article PMC4561856, “Atomic basis for therapeutic activation of neuronal potassium channels” (Nature Communications, 2015).
Residue numbers refer to the chain shown, from its start. Where two headings read alike, the source gives them in different places.

How the values were obtained:
[1] = system: KCNQ3*[Trp265TAG] rescued with F3-Trp; assay: Two-electrode voltage clamp of F3-Trp-rescued KCNQ3*[Trp265TAG] channels (nonsense suppression); type: cell-based, human; details: for drug potency relative to Trp-rescued channels: F3-Trp substitution at Trp265
From the text: (§1) KCNQ2 (human) and KCNQ3 (human) channel cDNAs were propagated and manipulated using the pTLN vector (gifts of Dr M. Taglialatela and Dr T. Jentsch). Introduction of point mutations was accomplished using PCR to combine two fragments each of which contained the mutation in an overlapping region of the sequence (‘two-step’ PCR method). To accomplish this, we used standard PCR approaches to amplify a 5′ fragment and a 3′ fragment (using a ‘flanking primer’ paired with a mutagenic primer). These fragments were then mixed along with the ‘flanking primer’ pair for a second round of PCR to combine the overlapping fragments. The resulting fragment was then subcloned into the appropriate parent vector using EcoRI and NotI restriction enzymes, and the sequence was verified by Sanger sequencing approaches (Genewiz). Sequences for the flanking primers and the ‘forward’ mutagenic primers are provided in Supplementary Table 1 for all mutations that were generated (‘reverse’ mutagenic primers are simply the reverse complement). In all experiments involving homomeric expression of KCNQ3 channels (including in vivo nonsense suppression experiments), the Ala315Thr mutation was introduced to enable efficient trafficking of homomeric KCNQ3. […] The plasmid encoding CivSP was kindly provided by Dr Y. Okamura. Complementary RNA was transcribed from the cDNA using the mMessage mMachine Kit (Ambion). Stage V–VI Xenopus laevis oocytes were prepared as previously described and were injected with cRNA alone or cRNA plus synthetic tRNA (for nonsense suppression, described below). Oocyte preparation was carried out using a protocol approved by the University of British Columbia Animal Care Committee, in accordance with the Canadian Council for Animal Care guidelines. We used female Xenopus laevis frogs 100 g or greater in size. After injection, oocytes were incubated for 12–48 h at 18 °C before recording.
Fluorinated Trp derivatives (5-F1-Trp; 7-F1-Trp; 5,7-F2-Trp (F2-Trp) and 5,6,7-F3-Trp (F3-Trp) were purchased from Asis Chem (Watertown, MA) and Sigma-Aldrich (St Louis, MO). The ‘Ind’ Trp variant was synthesized in-house as described previously. Incorporation of unnatural amino acids into ion channel proteins was carried out as described extensively in prior publications. Briefly, unnatural amino acids (aa) were protected with nitroveratryloxycarbonyl and were activated as the cyanomethyl ester, which were then coupled to the dinucleotide pdCpA (GE Healthcare/Dharmacon, Lafayette, CO). This aminoacyl dinucleotide was subsequently ligated to a modified (G73) Tetrahymena thermophile tRNA. […]
(§2) Voltage-clamped potassium currents were recorded in standard Ringers solution (in mM): 116 NaCl, 2 KCl, 1 MgCl2, 0.5 CaCl2, 5 HEPES (pH 7.4) using an OC-725C voltage clamp (Warner, Hamden, CT). […]

[2] = target: T1, KCNQ3* (KCNQ3[Ala315Thr]) (Homo sapiens, UniProt O43525, A315T); assay: Two-electrode voltage clamp of homomeric KCNQ3* channels in Xenopus oocytes; type: cell-based
T1 sequence (O43525 1-872 A315T): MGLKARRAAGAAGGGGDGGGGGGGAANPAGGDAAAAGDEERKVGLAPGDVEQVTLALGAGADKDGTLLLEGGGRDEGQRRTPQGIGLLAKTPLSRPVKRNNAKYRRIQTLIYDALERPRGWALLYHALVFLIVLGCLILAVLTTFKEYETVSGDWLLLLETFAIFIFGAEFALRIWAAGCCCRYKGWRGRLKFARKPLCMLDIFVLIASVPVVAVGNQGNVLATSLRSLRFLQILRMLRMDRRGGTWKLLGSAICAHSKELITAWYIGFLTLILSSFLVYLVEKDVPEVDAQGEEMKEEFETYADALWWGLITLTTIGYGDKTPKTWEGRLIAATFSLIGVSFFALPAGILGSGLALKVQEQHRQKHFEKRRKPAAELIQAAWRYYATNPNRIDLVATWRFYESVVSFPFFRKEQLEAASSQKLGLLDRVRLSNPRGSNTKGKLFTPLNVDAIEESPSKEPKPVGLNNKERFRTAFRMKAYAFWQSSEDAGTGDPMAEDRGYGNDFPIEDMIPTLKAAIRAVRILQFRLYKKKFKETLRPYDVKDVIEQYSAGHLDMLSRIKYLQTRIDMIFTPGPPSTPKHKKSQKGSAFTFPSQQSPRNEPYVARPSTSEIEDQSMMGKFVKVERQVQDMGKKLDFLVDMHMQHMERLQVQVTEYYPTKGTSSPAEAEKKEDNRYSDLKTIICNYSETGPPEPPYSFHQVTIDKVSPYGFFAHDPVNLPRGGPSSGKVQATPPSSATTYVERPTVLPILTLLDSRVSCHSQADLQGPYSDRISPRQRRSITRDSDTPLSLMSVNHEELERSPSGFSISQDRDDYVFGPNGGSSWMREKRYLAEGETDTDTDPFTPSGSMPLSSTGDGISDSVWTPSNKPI
From the text: as §1
Voltage-clamped potassium currents were recorded in standard Ringers solution (in mM): 116 NaCl, 2 KCl, 1 MgCl2, 0.5 CaCl2, 5 HEPES (pH 7.4) using an OC-725C voltage clamp (Warner, Hamden, CT). Glass microelectrodes were backfilled with 3 M KCl and had resistances of 0.1–1 MΩ. Data were filtered at 5 kHz and digitized at 10 kHz using a Digidata 1440A (Molecular Devices) controlled by the pClamp 10 software (Molecular Devices). Drugs were purchased from Toronto Research Chemicals (retigabine) or Tocris (ML-213, flupirtine, ICA-069673, ICA-110381), stored as 100 mM stocks in dimethylsulphoxide and diluted to working concentrations each experimental day.

KCNQ3*[Trp265Ind] = assay: Two-electrode voltage clamp of Ind-rescued KCNQ3*[Trp265TAG] channels (nonsense suppression); type: cell-based, human; details: Ind at position 265; up to 100 μM retigabine
From the text: (§3) KCNQ2 (human) and KCNQ3 (human) channel cDNAs were propagated and manipulated using the pTLN vector (gifts of Dr M. Taglialatela and Dr T. Jentsch). Introduction of point mutations was accomplished using PCR to combine two fragments each of which contained the mutation in an overlapping region of the sequence (‘two-step’ PCR method). To accomplish this, we used standard PCR approaches to amplify a 5′ fragment and a 3′ fragment (using a ‘flanking primer’ paired with a mutagenic primer). These fragments were then mixed along with the ‘flanking primer’ pair for a second round of PCR to combine the overlapping fragments. The resulting fragment was then subcloned into the appropriate parent vector using EcoRI and NotI restriction enzymes, and the sequence was verified by Sanger sequencing approaches (Genewiz). Sequences for the flanking primers and the ‘forward’ mutagenic primers are provided in Supplementary Table 1 for all mutations that were generated (‘reverse’ mutagenic primers are simply the reverse complement). […]
as §2

KCNQ2 = KCNQ2 (Homo sapiens, UniProt O43526); assay: Two-electrode voltage clamp of homomeric KCNQ2 channels in Xenopus oocytes; type: cell-based; details: 100 μM retigabine (Fig. 1)
From the text: as §3, §2

KCNQ2/3 heteromers = target: T2, KCNQ2/3 heteromers (Homo sapiens, UniProt O43525+O43526); assay: Two-electrode voltage clamp of heteromeric KCNQ2/3 channels in Xenopus oocytes; type: cell-based; details: 1:1 injected mRNA
T2 construct: expressed in transfected cells; host or cells: Xenopus laevis oocytes co-injected with KCNQ2 and KCNQ3 mRNA (1:1)
From the text: as §3, §2

KCNQ1 = KCNQ1 lacks the S5 Trp; cited from earlier work
KCNQ3*[Asn220Cys] = target: T3, KCNQ3*[Asn220Cys] (Homo sapiens, UniProt O43525, A315T/N220C); assay: Two-electrode voltage clamp of KCNQ3*[Asn220Cys] channels in Xenopus oocytes; type: cell-based; details: 1 μM retigabine, Asn220Cys mutant
T3 sequence (O43525 1-872 N220C/A315T): T1 sequence (O43525 1-872 A315T) with N220C
From the text: as §3, §2

[3] = target: T4, KCNQ3*[Trp265TAG] rescued with Trp (Homo sapiens, UniProt O43525, A315T); assay: Two-electrode voltage clamp of Trp-rescued KCNQ3*[Trp265TAG] channels (nonsense suppression); type: cell-based; details: 1 μM retigabine
T4 construct: expressed in transfected cells; host or cells: Xenopus laevis oocytes co-injected with KCNQ3*[Trp265TAG] cRNA and Trp-acylated suppressor tRNA
T4 sequence (O43525 1-872 A315T): T1 sequence (O43525 1-872 A315T)
From the text: as §3, §2

[4] = system: KCNQ3* mutants at Thr271, Leu272, Leu314 and Leu338; assay: Two-electrode voltage clamp of KCNQ3* mutants at Thr271, Leu272, Leu314, Leu338; type: cell-based, human; details: functional mutants, up to 300 μM retigabine
From the text: as §3, §2

T2 sequence (O43526 whole entry): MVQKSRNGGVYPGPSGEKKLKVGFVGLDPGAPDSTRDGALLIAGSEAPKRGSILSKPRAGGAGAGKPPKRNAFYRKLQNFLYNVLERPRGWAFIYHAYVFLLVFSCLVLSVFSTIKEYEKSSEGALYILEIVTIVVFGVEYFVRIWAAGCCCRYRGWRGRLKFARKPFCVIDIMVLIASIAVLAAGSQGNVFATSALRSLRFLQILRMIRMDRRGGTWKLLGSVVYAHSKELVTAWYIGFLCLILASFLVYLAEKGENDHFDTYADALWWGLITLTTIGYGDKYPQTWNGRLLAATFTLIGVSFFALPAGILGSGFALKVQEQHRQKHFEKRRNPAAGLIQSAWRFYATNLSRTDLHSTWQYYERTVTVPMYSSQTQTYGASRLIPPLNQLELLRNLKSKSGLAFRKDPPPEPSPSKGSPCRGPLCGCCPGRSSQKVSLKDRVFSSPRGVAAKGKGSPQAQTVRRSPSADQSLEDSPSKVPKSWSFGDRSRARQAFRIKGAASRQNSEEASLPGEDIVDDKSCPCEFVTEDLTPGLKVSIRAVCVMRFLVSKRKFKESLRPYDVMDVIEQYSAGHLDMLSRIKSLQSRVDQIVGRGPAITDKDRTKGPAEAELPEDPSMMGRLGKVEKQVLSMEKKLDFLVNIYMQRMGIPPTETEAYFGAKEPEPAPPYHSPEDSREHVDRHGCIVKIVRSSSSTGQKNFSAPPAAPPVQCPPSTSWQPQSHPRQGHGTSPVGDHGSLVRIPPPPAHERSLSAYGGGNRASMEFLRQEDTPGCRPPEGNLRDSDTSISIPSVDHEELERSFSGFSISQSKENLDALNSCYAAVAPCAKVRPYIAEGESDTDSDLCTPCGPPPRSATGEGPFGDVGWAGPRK
T2 sequence (O43525 whole entry): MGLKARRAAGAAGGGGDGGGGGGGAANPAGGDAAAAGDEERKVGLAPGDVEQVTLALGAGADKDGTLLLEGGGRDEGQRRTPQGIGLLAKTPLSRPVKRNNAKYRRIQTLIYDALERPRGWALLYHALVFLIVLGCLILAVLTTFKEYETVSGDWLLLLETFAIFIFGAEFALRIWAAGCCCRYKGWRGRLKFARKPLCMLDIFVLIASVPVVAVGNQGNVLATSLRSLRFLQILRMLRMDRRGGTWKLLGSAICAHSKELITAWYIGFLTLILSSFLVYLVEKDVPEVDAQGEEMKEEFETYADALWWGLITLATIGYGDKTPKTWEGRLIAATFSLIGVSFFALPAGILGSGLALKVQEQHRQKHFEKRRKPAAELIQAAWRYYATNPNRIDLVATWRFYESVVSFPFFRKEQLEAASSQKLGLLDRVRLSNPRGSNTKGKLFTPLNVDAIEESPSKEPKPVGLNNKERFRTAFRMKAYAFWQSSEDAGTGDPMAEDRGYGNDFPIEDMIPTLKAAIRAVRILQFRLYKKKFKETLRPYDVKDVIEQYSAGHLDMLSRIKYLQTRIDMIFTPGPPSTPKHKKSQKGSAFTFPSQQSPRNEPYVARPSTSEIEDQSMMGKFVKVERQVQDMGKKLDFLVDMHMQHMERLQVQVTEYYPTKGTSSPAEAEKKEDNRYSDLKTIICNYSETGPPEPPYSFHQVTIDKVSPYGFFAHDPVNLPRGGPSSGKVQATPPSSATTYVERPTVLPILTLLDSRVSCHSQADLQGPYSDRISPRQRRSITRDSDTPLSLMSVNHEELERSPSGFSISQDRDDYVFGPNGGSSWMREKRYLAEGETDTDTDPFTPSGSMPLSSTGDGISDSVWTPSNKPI
Chain of KCNQ2 (O43526 whole entry): as the sequence (O43526 whole entry) above

Question: For `O=C(Nc1ccc(Cl)nc1)c1ccc(Cl)cc1` [ICA-110381], which “drug potency relative to Trp-rescued channels” value [1] is on record?
Answer: not as pronounced

Question: What about the “activation relative to Trp channels” value ([1]; F3-Trp-substituted channels) of the same compound?
Answer: considerably more activation

Question: With `Cc1cc(C)c(NC(=O)C2CC3CCC2C3)c(C)c1` (stereo not shown) [ML-213] as the compound, how does the EC50 ([2]; KCNQ3* channels, n=5, ± s.e., read-out: EC50 for shift of activation V1/2) read?
Answer: 3.6 ± 0.2 µM

Question: With `O=C(Nc1cnc(Cl)nc1)c1ccc(F)c(F)c1` [ICA-069673] as the compound, how does the “drug potency relative to Trp-rescued channels” value [1] read?
Answer: not as pronounced

Question: Which results are given for `CCOC(=O)Nc1ccc(NCc2ccc(F)cc2)cc1N` [retigabine]?
Answer: EC50 [2]: 11.6 ± 0.4 µM; increase in peak current ([2]; KCNQ3* channels, rarely greater than): ≤ 15%; hyperpolarizing shift of the V1/2 of activation ([2]; homomeric KCNQ3*, Xenopus oocytes, 100 μM retigabine (Fig. 1)): 40–60 mV; stabilization of channel opening, ΔG=Δ(zFV1/2) ([2]; saturating retigabine, calculated from shift of conductance–voltage relationship): ~6 kcal/mol; activation of channels (gating shift, activation kinetics) (KCNQ3*[Trp265Ind]): entirely abolishes retigabine activation; hyperpolarizing shift of the V1/2 of activation (KCNQ2): 40–60 mV; retigabine-mediated gating shift (KCNQ2/3 heteromers): ~−40 mV; shift in the voltage dependence of activation ([1]; 1 μM retigabine, F3-Trp at Trp265): much larger response; hyperpolarizing shift of V1/2 of activation (KCNQ1): absent; gating shift / sensitization to retigabine (KCNQ3*[Asn220Cys]): unable to generate a marked gating shift; shift in the voltage dependence of activation [3]: very little shift; retigabine-mediated gating shift [4]: retained a large retigabine-mediated gating shift
